Data as given in US20190375708A1 (VenatoRx Pharmaceuticals, Inc., priority 2018, published 2019).

Columns and labels:
[1] = In vitro cytotoxicity assay (MTT cell viability) in HepG2 cells; format: cell-based, human; conditions: human
Summary of the method: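 Using MTT conversion as the viability measure, HepG2 cells were incubated with compounds for 7 days (30 μM to 1.0 nM). Absorbance at 492 nm was normalized to vehicle and fitted to give CC50.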

[2] = tested on: HBV replication in HepAD38 cells; test: Anti-HBV replication assay in HepAD38 cells (QPCR of extracellular HBV DNA); format: cell-based, HBV (genotype D, serotype ayw); conditions: Hepatitis B virus, 168 h, 7 days incubation, extracellular HBV DNA by QPCR, read-out: Anti-HBV EC50
Summary of the method: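 Compounds (1 log10 serial dilutions, […]) were left 7 days on tetracycline-free HepAD38 cultures, a HepG2 line with tet-controlled HBV genotype D. EC50 came from 4-parameter regression of percent inhibition versus vehicle, using supernatant HBV DNA copies/mL measured by QPCR.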

Row | SMILES | CC50 at 7 days [1] [nM] | EC50 [2] [nM]
1 | Cc1cc(NC(=O)c2c(C)c(C(=O)C(=O)NCC(C)(C)O)n(C)c2C)cnc1F [Example 183, N-(6-fluoro-5-methylpyridin-3-yl)-5-(2-((2-hydroxy-2-methylpropyl)amino)-2-oxoacetyl)-1,2,4-trimethyl-1H-pyrrole-3-carboxamide] | > 30000 | 500 to 1000
2 | Cc1cc(NC(=O)c2c(C)c(C(=O)C(=O)NC3CCc4nc(N)sc4C3)n(C)c2C)ccc1F (stereo not shown) [Example 20, 5-(2-((2-amino-4,5,6,7-tetrahydrobenzo[d]thiazol-6-yl)amino)-2-oxoacetyl)-N-(4-fluoro-3-methylphenyl)-1,2,4-trimethyl-1H-pyrrole-3-carboxamide] | 500 to 4990 | < 50
3 | Cc1cc(NC(=O)c2c(C)c(C(=O)C(=O)N[C@H]3CC[C@H](O)C3)n(CCF)c2C)ccc1F [Example 194, N-(4-fluoro-3-methylphenyl)-1-(2-fluoroethyl)-5-(2-(((1S,3S)-3-hydroxycyclopentyl)amino)-2-oxoacetyl)-2,4-dimethyl-1H-pyrrole-3-carboxamide] | > 30000 | 50 to 499
4 | Cc1cc(NC(=O)c2c(C)c(C(=O)C(=O)N[C@H]3[C@@H]4CN(S(C)(=O)=O)C[C@@H]43)n(C)c2C)ccc1F [Example 644, N-(4-fluoro-3-methylphenyl)-1,2,4-trimethyl-5-(2-(((1R,5S,6s)-3-(methylsulfonyl)-3-aabicyclo[3.1.0]hexan-6-yl)amino)-2-oxoacetyl)-1H-pyrrole-3-carboxamide] | 5000 to 30000 | < 50
5 | Cc1cc(NC(=O)c2c(C)c(C(=O)C(=O)N[C@H]3CC[C@](C)(O)CC3)n(C)c2C)ccc1F [Example 213, N-(4-fluoro-3-methylphenyl)-5-(2-(((1r,4r)-4-hydroxy-4-methylcyclohexyl)amino)-2-oxoacetyl)-1,2,4-trimethyl-1H-pyrrole-3-carboxamide] | > 30000 | < 50
6 | Cc1cc(NC(=O)c2c(Cl)c(C(=O)C(=O)NC3(CO)CC(F)(F)C3)n3c2CCCC3)ccc1F [Example 496, 2-chloro-3-(2-((3,3-difluoro-1-(hydroxymethyl)cyclobutyl)amino)-2-oxoacetyl)-N-(4-fluoro-3-methylphenyl)-5,6,7,8-tetrahydroindolizine-1-carboxamide] | 5000 to 30000 | < 50
7 | Cc1cc(NC(=O)c2cc(C(=O)C(=O)NC(C)(C)C)n3c2CCC3)ccc1F [Example 536, 5-(2-(tert-butylamino)-2-oxoacetyl)-N-(4-fluoro-3-methylphenyl)-2,3-dihydro-1H-pyrrolizine-7-carboxamide] | > 30000 | < 50
8 | Cc1cc(NC(=O)c2c(C)c(C(=O)C(=O)N[C@@]3(C)CC[C@H](O)C3)n(C)c2C)ccc1F [Example 723, N-(4-fluoro-3-methylphenyl)-5-(2-(((1 S,3S)-3-hydroxy-1-methylcyclopentyl)amino)-2-oxoacetyl)-1,2,4-trimethyl-1H-pyrrole-3-carboxamide] | > 30000 | < 50
9 | Cn1cc(C(=O)Nc2ccc(F)c(Cl)c2)cc1C(=O)C(=O)NOC(C)(C)C [Example 21, 5-(2-(tert-butoxyamino)-2-oxoacetyl)-N-(3-chloro-4-fluorophenyl)-1-methyl-1H-pyrrole-3-carboxamide] | > 30000 | 50 to 499
10 | Cc1c(C(=O)Nc2ccc(F)c(Cl)c2)c(C)n(C)c1C(=O)C(=O)Nc1ccc(F)nc1 [Example 312, N-(3-chloro-4-fluorophenyl)-5-(2-((6-fluoropyridin-3-yl)amino)-2-oxoacetyl)-1,2,4-trimethyl-1H-pyrrole-3-carboxamide] | 5000 to 30000 | < 50
11 | Cc1noc([C@H](C)NC(=O)C(=O)c2c(C)c(C(=O)Nc3ccc(F)c(Cl)c3)c3n2CCCC3)n1 [Example 446, (S)-N-(3-chloro-4-fluorophenyl)-2-methyl-3-(2-((1-(3-methyl-1,2,4-oxadiazol-5-yl)ethyl)amino)-2-oxoacetyl)-5,6,7,8-tetrahydroindolizine-1-carboxamide] | 5000 to 30000 | 50 to 499
12 | Cc1c(C(=O)Nc2ccc(F)c(F)c2)c2n(c1C(=O)C(=O)NC1(CO)CC1)CCCC2 [Example 463, N-(3,4-difluorophenyl)-3-(2-((1-(hydroxymethyl)cyclopropyl)amino)-2-oxoacetyl)-2-methyl-5,6,7,8-tetrahydroindolizine-1-carboxamide] | 5000 to 30000 | 50 to 499
13 | Cc1cc(NC(=O)c2c(C)c(C(=O)C(=O)Nc3ccc(F)cn3)n(C)c2C)cnc1F [Example 338, N-(6-fluoro-5-methylpyridin-3-yl)-5-(2-((5-fluoropyridin-2-yl)amino)-2-oxoacetyl)-1,2,4-trimethyl-1H-pyrrole-3-carboxamide] | > 30000 | 500 to 1000
14 | Cc1cc(NC(=O)c2c(C)c(C(=O)C(=O)N[C@]3(C)C[C@H](O)C3)n(C)c2C)ccc1F [Example 267, N-(4-fluoro-3-methylphenyl)-5-(2-(((1s,3s)-3-hydroxy-1-methylcyclobutyl)amino)-2-oxoacetyl)-1,2,4-trimethyl-1H-pyrrole-3-carboxamide] | > 30000 | < 50
15 | Cc1cc(NC(=O)c2c(C)c(C(=O)C(=O)N[C@@H]3CCOC[C@H]3O)n(CCF)c2C)ccc1F [Example 196, N-(4-fluoro-3-methylphenyl)-1-(2-fluoroethyl)-5-(2-(((3S,4R)-3-hydroxytetrahydro-2H-pyran-4-yl)amino)-2-oxoacetyl)-2,4-dimethyl-1H-pyrrole-3-carboxamide] | > 30000 | 50 to 499
16 | O=C(N[C@H]1CCC[C@H]1O)C(=O)c1c(Cl)c(C(=O)Nc2ccc(F)c(Cl)c2)c2n1CCCC2 [Example 514, 2-chloro-N-(3-chloro-4-fluorophenyl)-3-(2-(((1S,2R)-2-hydroxycyclopentyl)amino)-2-oxoacettyl)-5,6,7,8-tetrahydroindolizine-1-carboxamide] | 5000 to 30000 | 50 to 499
17 | CC(C)(C)NC(=O)C(=O)c1cc(C(=O)Nc2ccc(F)c(C#N)c2)c2n1CCCC2 [Example 392, 3-(2-(tert-butylamino)-2-oxoacetyl)-N-(3-cyano-4-fluorophenyl)-5,6,7,8-tetrahydroindolizine-1-carboxamide] | 5000 to 30000 | > 1000
18 | Cc1cc(NC(=O)c2c(C)c(C(=O)C(=O)N3CCC(O)CC3)n(C)c2C)ccc1F [Example 47, N-(4-fluoro-3-methylphenyl)-5-(2-(4-hydroxypiperidin-1-yl)-2-oxoacetyl)-1,2,4-trimethyl-1H-pyrrole-3-carboxamide] | 500 to 4990 | 50 to 499
19 | Cc1cc(NC(=O)c2c(C)c(C(=O)C(=O)N[C@@H](C(N)=O)C3CCCCC3)n(C)c2C)ccc1F [Example 102, (R)-5-(2-((2-amino-1-cyclohexyl-2-oxoethyl)amino)-2-oxoacetyl)-N-(4-fluoro-3-methylphenyl)-1,2,4-trimethyl-1H-pyrrole-3-carboxamide] | 500 to 4990 | < 50
20 | COC(=O)[C@H](NC(=O)C(=O)c1c(C)c(C(=O)Nc2ccc(F)c(C)c2)c(C)n1C)C1CCCCC1 [Example 56, methyl (R)-2-cyclohexyl-2-(2-(4-((4-fluoro-3-methylphenyl)carbamoyl)-1,3,5-trimethyl-1H-pyrrol-2-yl)-2-oxoacetamido)acetate] | 500 to 4990 | < 50
21 | Cc1c(C(=O)Nc2cncc(Cl)c2)c(C)n(C)c1C(=O)C(=O)N[C@H](C)C(F)(F)F [Example 727, (R)-N-(5-chloropyridin-3-yl)-1,2,,4-trimethyl-5-(2-oxo-2-((1,1,1-trifluoropropan-2-yl)amino)acetyl)-1H-pyrrole-3-carboxamide] | > 30000 | < 50
22 | Cc1cc(NC(=O)c2c(C)c(C(=O)C(=O)NC3(C(N)=O)C4CC5CC(C4)CC3C5)n(C)c2C)ccc1F (stereo not shown) [Example 43, 5-(2-(((1r,3r,5r,7r)-2-carbamoyladamantan-2-yl)amino)-2-oxoacetyl)-N-(4-fluoro-3-methylphenyl)-1,2,4-trimethyl-1H-pyrrole-3-carboxamide] | 500 to 4990 | < 50
23 | Cc1c(C(=O)Nc2ccc(F)c(F)c2)c(C)n(C)c1C(=O)C(=O)NC(C)(C)C [Example 4, 5-(2-(tert-butylamino)-2-oxoacetyl)-N-(3,4-difluorophenyl)-1,2,4-trimethyl-1H-pyrrole-3-carboxamide] | > 30000 | < 50
24 | CC(C)(O)CNC(=O)C(=O)c1c(Cl)c(C(=O)Nc2ccc(F)c(Cl)c2)c2n1CCCC2 [Example 532, 2-chloro-N-(3-chloro-4-fluorophenyl)-3-(2-((2-hydroxy-2-methylpropyl)amino)-2-oxoacetyl)-5,6,7,8-tetrahydroindolizine-1-carboxamide] | 500 to 4990 | 500 to 1000
25 | Cc1cc(NC(=O)c2c(C)c(C(=O)C(=O)N[C@H]3CCOC[C@@H]3O)n(C)c2C)ccc1F [Example 187, N-(4-fluoro-3-methylphenyl)-5-(2-(((3R,4S)-3-hydroxytetrahydro-2H-pyran-4-yl)amino)-2-oxoacetyl)-1,2,4-trimethyl-1H-pyrrole-3-carboxamide] | > 30000 | > 1000
26 | O=C(N[C@H]1CCC[C@H]1O)C(=O)c1c(Cl)c(C(=O)Nc2ccc(F)c(Cl)c2)c2n1CCC2 [Example 564, 6-chloro-N-(3-chloro-4-fluorophenyl)-5--(2-(((1S,2R)-2-hydroxycyclopentyl)amino)-2-oxoacetyl)-2,3-dihydro-1H-pyrrolizine-7-carboxamide] | 5000 to 30000 | < 50
